Results as given in patent publication US8748417B2, “Amino-pyrrolidine-azetidine diamides as monoacylglycerol lipase inhibitors” (Janssen Pharmaceutica, NV, priority 2010, dated 2014).

What was measured:
[1] = target: T1, purified wild type MGL (wt-MGLL 6H-11-313) (Homo sapiens, UniProt Q99685); experiment: MGL enzyme activity assay (4MU-B cleavage), wild type MGL; format: biochemical; details: wild type MGL 5 nM, 4MU-B 10 μM, 37° C.; read-out: MGL wild type inh IC50
T1 construct: purified wild type MGL (wt-MGLL 6H-11-313)
T1 sequence (Q99685 1-303): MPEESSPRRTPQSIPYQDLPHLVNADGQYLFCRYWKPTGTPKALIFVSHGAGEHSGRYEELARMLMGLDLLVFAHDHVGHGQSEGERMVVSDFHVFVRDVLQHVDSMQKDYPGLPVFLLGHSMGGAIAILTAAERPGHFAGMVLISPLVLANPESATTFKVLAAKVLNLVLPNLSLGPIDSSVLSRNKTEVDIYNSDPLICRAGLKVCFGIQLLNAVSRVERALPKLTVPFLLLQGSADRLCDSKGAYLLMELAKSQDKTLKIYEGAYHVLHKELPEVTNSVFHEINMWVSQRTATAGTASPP
Summary of the method: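 Enzyme in 20 mM PIPES pH 7.0, 150 mM NaCl, 0.001% Tween 20 with 4MU-B at 10 μM final and MGL at 5 nM final; compounds 17 to 0.0003 μM final, enzyme added last. Fluorescence (ex 335/em 440 nm) followed at 37° C for 5 min; IC50 from fit of fractional activity versus inhibitor concentration.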

[2] = system: MGL (rat brain homogenate); experiment: 2-AG accumulation assay in rat brain homogenate; format: biochemical; details: compound 1 μM, percent of vehicle 2-AG accumulation
Summary of the method: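 Rat brain homogenate was incubated with compound for 15 min at 37° C., after which CaCl2 was added to a final concentration of 10 mM and incubation continued for 15 min at 37° C. in 5 mL total. Reactions were stopped with 6 mL of 2:1 chloroform/methanol, and 2-AG accumulated in the organic phase was quantified by HPLC/MS.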

Row | Compound | IC50 [1] [nM] | Rat Brain 2AG % VehCntrl (%) @1 μM [2] [%]
1 | O=C(c1ccc(Cc2ccc(C(F)(F)F)cc2)cc1)N1CC(N[C@H]2CCN(C(=O)c3cscn3)C2)C1 [Cpd 144, (3S)-1-(1,3-Thiazol-4-ylcarbonyl)-N-[1-({4-[4-(trifluoromethyl)benzyl]phenyl}carbonyl)azetidin-3-yl]pyrrolidin-3-amine] | < 5 | 992
2 | O=C(c1ccc(-c2ccc(C(F)(F)F)cc2)cc1)N1CC(N[C@H]2CCN(C(=O)c3cscn3)C2)C1 [Cpd 145, (3S)-1-(1,3-Thiazol-4-ylcarbonyl)-N-(1-{[4′-(trifluoromethyl)biphenyl-4-yl]carbonyl}azetidin-3-yl)pyrrolidin-3-amine] | 96.4 | 193
3 | O=C(c1nccs1)N1CC[C@H](NC2CN(C(=O)c3sc4cc(-c5ccccc5)ccc4c3Cl)C2)C1 [Cpd 146, (3S)-N-{1-[(3-Chloro-6-phenyl-1-benzothiophen-2-yl)carbonyl]azetidin-3-yl}-1-(1,3-thiazol-2-ylcarbonyl)pyrrolidin-3-amine] | < 5 | 680
4 | O=C(c1nccs1)N1CC[C@H](NC2CN(C(=O)c3sc4cc(-c5cccc(C(F)(F)F)c5)ccc4c3Cl)C2)C1 [Cpd 148, (3S)-N-[1-({3-Chloro-6-[3-(trifluoromethyl)phenyl]-1-benzothiophen-2-yl}carbonyl)azetidin-3-yl]-1-(1,3-thiazol-2-ylcarbonyl)pyrrolidin-3-amine] | < 5 | 942
5 | O=C(c1cscn1)N1CC[C@H](NC2CN(C(=O)c3sc4cc(-c5cccc(C(F)(F)F)c5)ccc4c3Cl)C2)C1 [Cpd 149, (3S)-N-[1-({3-Chloro-6-[3-(trifluoromethyl)phenyl]-1-benzothiophen-2-yl}carbonyl)azetidin-3-yl]-1-(1,3-thiazol-4-ylcarbonyl)pyrrolidin-3-amine] | < 5 | 811
6 | O=C(c1nccs1)N1CC[C@H](NC2CN(C(=O)c3sc4cc(-c5ccc(C(F)(F)F)cc5)ccc4c3Cl)C2)C1 [Cpd 150, (3S)-N-[1-({3-Chloro-6-[4-(trifluoromethyl)phenyl]-1-benzothiophen-2-yl}carbonyl)azetidin-3-yl]-1-(1,3-thiazol-2-ylcarbonyl)pyrrolidin-3-amine] | < 5 | 759
7 | O=C(c1cscn1)N1CC[C@H](NC2CN(C(=O)c3sc4cc(-c5ccc(C(F)(F)F)cc5)ccc4c3Cl)C2)C1 [Cpd 151, (3S)-N-[1-({3-Chloro-6-[4-(trifluoromethyl)phenyl]-1-benzothiophen-2-yl}carbonyl)azetidin-3-yl]-1-(1,3-thiazol-4-ylcarbonyl)pyrrolidin-3-amine] | < 5 | 495
8 | O=C(c1ccc2c(ccn2-c2ccc(F)cc2)c1)N1CC(N[C@H]2CCN(C(=O)c3ccccc3)C2)C1 [Cpd 161, (3S)-N-(1-{[1-(4-Fluorophenyl)-1H-indol-5-yl]carbonyl}azetidin-3-yl)-1-(phenylcarbonyl)pyrrolidin-3-amine] | 55 | 485
9 | Cn1cc(-c2ccc(C(F)(F)F)cc2)c2ccc(C(=O)N3CC(N[C@H]4CCN(C(=O)c5nccs5)C4)C3)cc21 [Cpd 163, (3S)-N-[1-({1-Methyl-3-[4-(trifluoromethyl)phenyl]-1H-indol-6-yl}carbonyl)azetidin-3-yl]-1-(1,3-thiazol-2-ylcarbonyl)pyrrolidin-3-amine] | 10.7 | 274
10 | O=C(c1nccs1)N1CC[C@H](NC2CN(C(=O)c3sc4cc(C(F)(F)F)ccc4c3Cl)C2)C1 [Cpd 167, (3S)-N-(1-{[3-Chloro-6-(trifluoromethyl)-1-benzothiophen-2-yl]carbonyl}azetidin-3-yl)-1-(1,3-thiazol-2-ylcarbonyl)pyrrolidin-3-amine] | 11 | 695
11 | O=C(c1nccs1)N1CC[C@H](NC2CN(C(=O)c3sc4ccc(-c5ccccc5)cc4c3F)C2)C1 [Cpd 171, (3S)-N-{1-[(3-Fluoro-5-phenyl-1-benzothiophen-2-yl)carbonyl]azetidin-3-yl}-1-(1,3-thiazol-2-ylcarbonyl)pyrrolidin-3-amine] | < 5 | 614
12 | O=C(c1ccccc1)N1CC[C@H](NC2CN(C(=O)c3sc4ccc(-c5ccccc5)cc4c3F)C2)C1 [Cpd 173, (3S)-N-{1-[(3-Fluoro-5-phenyl-1-benzothiophen-2-yl)carbonyl]azetidin-3-yl}-1-(phenylcarbonyl)pyrrolidin-3-amine] | < 5 | 628

Further lines, with some results ahead:

Row | IC50 [1] [nM] | Compound | Rat Brain 2AG % VehCntrl (%) @1 μM [2] [%]
13 | < 5 | O=C(c1cscn1)N1CC[C@H](NC2CN(C(=O)c3sc4cc(-c5ccccc5)ccc4c3Cl)C2)C1 [Cpd 147, (3S)-N-{1-[(3-Chloro-6-phenyl-1-benzothiophen-2-yl)carbonyl]azetidin-3-yl}-1-(1,3-thiazol-4-ylcarbonyl)pyrrolidin-3-amine] | 506
14 | 35.2 | O=C(c1ccccc1)N1CC[C@H](NC2CN(C(=O)c3ccc(-c4cccc(C(F)(F)F)c4)cc3F)C2)C1 [Cpd 152, (3S)-N-(1-{[3-Fluoro-3′-(trifluoromethyl)biphenyl-4-yl]carbonyl}azetidin-3-yl)-1-(phenylcarbonyl)pyrrolidin-3-amine] | 404
15 | 13.4 | O=C(c1ccc2c(ccn2-c2ccc(C(F)(F)F)cc2)c1)N1CC(N[C@H]2CCN(C(=O)c3ccccc3)C2)C1 [Cpd 154, (3S)-1-(Phenylcarbonyl)-N-[1-({1-[4-(trifluoromethyl)phenyl]-1H-indol-5-yl}carbonyl)azetidin-3-yl]pyrrolidin-3-amine] | 582
16 | 16 | O=C(c1ccc2c(ccn2-c2ccc(C(F)(F)F)cc2)c1)N1CC(N[C@H]2CCN(C(=O)c3cscn3)C2)C1 [Cpd 158, (3S)-1-(1,3-Thiazol-4-ylcarbonyl)-N-[1-({1-[4-(trifluoromethyl)phenyl]-1H-indol-5-yl}carbonyl)azetidin-3-yl]pyrrolidin-3-amine] | 415
17 | 12.4 | O=C(c1ccc2c(ccn2-c2ccc(F)cc2)c1)N1CC(N[C@H]2CCN(C(=O)c3cscn3)C2)C1 [Cpd 160, (3S)-N-(1-{[1-(4-Fluorophenyl)-1H-indol-5-yl]carbonyl}azetidin-3-yl)-1-(1,3-thiazol-4-ylcarbonyl)pyrrolidin-3-amine] | 338
18 | 25.1 | Cn1cc(-c2cccc(C(F)(F)F)c2)c2ccc(C(=O)N3CC(N[C@H]4CCN(C(=O)c5cscn5)C4)C3)cc21 [Cpd 164, (3S)-N-[1-({1-Methyl-3-[3-(trifluoromethyl)phenyl]-1H-indol-6-yl}carbonyl)azetidin-3-yl]-1-(1,3-thiazol-4-ylcarbonyl)pyrrolidin-3-amine] | 458
19 | 44.5 | Cn1cc(-c2ccc(C(F)(F)F)cc2)c2ccc(C(=O)N3CC(N[C@H]4CCN(C(=O)c5cscn5)C4)C3)cc21 [Cpd 165, (3S)-N-[1-({1-Methyl-3-[4-(trifluoromethyl)phenyl]-1H-indol-6-yl}carbonyl)azetidin-3-yl]-1-(1,3-thiazol-4-ylcarbonyl)pyrrolidin-3-amine] | 228
20 | 49.8 | Cn1cc(-c2cccc(C(F)(F)F)c2)c2ccc(C(=O)N3CC(N[C@H]4CCN(C(=O)c5ccccc5)C4)C3)cc21 [Cpd 166, (3S)-N-[1-({1-Methyl-3-[3-(trifluoromethyl)phenyl]-1H-indol-6-yl}carbonyl)azetidin-3-yl]-1-(phenylcarbonyl)pyrrolidin-3-amine] | 322
21 | 32.2 | O=C(c1cscn1)N1CC[C@H](NC2CN(C(=O)c3sc4cc(C(F)(F)F)ccc4c3Cl)C2)C1 [Cpd 168, (3S)-N-(1-{[3-Chloro-6-(trifluoromethyl)-1-benzothiophen-2-yl]carbonyl}azetidin-3-yl)-1-(1,3-thiazol-4-ylcarbonyl)pyrrolidin-3-amine] | 611
22 | 13.9 | Cn1cc(-c2ccccc2)c2ccc(C(=O)N3CC(N[C@H]4CCN(C(=O)c5nccs5)C4)C3)cc21 [Cpd 169, (3S)-N-{1-[(1-Methyl-3-phenyl-1H-indol-6-yl)carbonyl]azetidin-3-yl}-1-(1,3-thiazol-2-ylcarbonyl)pyrrolidin-3-amine] | 482
23 | < 5 | O=C(c1cscn1)N1CC[C@H](NC2CN(C(=O)c3sc4ccc(-c5ccccc5)cc4c3F)C2)C1 [Cpd 172, (3S)-N-{1-[(3-Fluoro-5-phenyl-1-benzothiophen-2-yl)carbonyl]azetidin-3-yl}-1-(1,3-thiazol-4-ylcarbonyl)pyrrolidin-3-amine] | 532
24 | 10 | O=C(c1nccs1)N1CC[C@H](NC2CN(C(=O)c3sc4ccc(-c5ccc(C(F)(F)F)cc5)cc4c3F)C2)C1 [Cpd 174, (3S)-N-[1-({3-Fluoro-5-[4-(trifluoromethyl)phenyl]-1-benzothiophen-2-yl}carbonyl)azetidin-3-yl]-1-(1,3-thiazol-2-ylcarbonyl)pyrrolidin-3-amine] | 791
